Laboratory results from US20180207113A1, “VIVO INTRACELLULAR REPROGRAMMING COMPOSITION AND METHOD OF MAKING AND USING SAME” (priority 2017, published 2018).

Tests used:
C. elegans [1] = assay: C. elegans lifespan; type: in vivo
Excerpt: Urolithins extend lifespan and improve fitness in C. elegans.

C. elegans [2] = assay: Activity and fitness during aging in C. elegans (mobility, pharyngeal pumping); type: in vivo
C. elegans [3] = assay: Mitochondrial function with age in C. elegans; type: in vivo
mitophagy = assay: Induction of mitophagy in vitro and in vivo; details: in vitro and in vivo following oral consumption

O=c1oc2c(O)c(O)cc3c(=O)oc4c(O)c(O)cc1c4c23 [EA] was tested, and the effect on lifespan (C. elegans [1]; at the same concentration (not given)) was “no effect on lifespan”.
For O=c1oc2cc(O)ccc2c2ccc(O)cc12 [UA, urolithin A], the “normal activity during aging, including mobility and pharyngeal pumping” value (C. elegans [2]) was “prolonged normal activity during aging”, the “accumulation of dysfunctional mitochondria with age” value (C. elegans [3]) was “prevented the accumulation of dysfunctional mitochondria with age” and the mitochondrial respiratory capacity (C. elegans [3]; during aging) was “maintaining mitochondrial respiratory capacity”. The lifespan (C. elegans [1]) was “extended lifespan”, the “mortality observed at advanced ages” value (C. elegans [1]; at 50 μM) was “significantly delayed the mortality” and the “dose-response effect on lifespan” value (C. elegans [1]; concentrations increased from 10 to 50 μM) was “clear dose-response effect”. For the same compound, the induction of mitophagy (mitophagy) was “induces mitophagy both in vitro and in vivo”.
